Measured values reported in US6208893A, “Electroporation apparatus with connective electrode template” (Genetronics, Inc., priority 1999, dated 2001).
Where two headings read alike, the source gives them in different places.

Legend:
PC-3 cells [1] = test: XTT cell proliferation assay, cytotoxicity on PC-3 cells with and without electroporation; details: for cytotoxicity enhancement ratio: IC50 no electroporation vs with electroporation; for cell susceptibility with electroporation / cytotoxic enhancement, rank order: combined with electroporation
Protocol: PC-3 cells (ATCC CRL-1435, a prostate cancer cell line) were grown in RPMI-1640 supplemented with 15% fetal calf serum (FCS) and 1% L-glutamine in 5% CO2 at 37° C. Cells in the exponential phase of growth were harvested by trypsinization and their viability was determined by trypan blue exclusion. Cell were suspended in culture medium at 2×10^5 cells/ml and seeded in the wells of a 96-well plate at a final concentration of 4×10^4 cells per well. Cells were pulsed using appropriate needle array electrodes connected to a square wave pulse generator. The needle array was inserted in the well of the 96 well microplate and pulsed using the following parameters:
A cell survival curve was produced for the different electric fields.
Methods, 142:2, 257-265, 1991). The XTT assay is based on a spectrophotometric assay of the metabolic conversion of tetrazolium salts to formazan; living cells convert XTT to formazan, which can be measured spectrophotometrically. Results were expresses as a comparison of the lC50 (concentration of drug inhibiting 50% of the cells) of each agent in the presence and absence of clectroporation, and are presented in Table 1.

PC-3 cells [2] = test: PC-3 tumors in nude mice, intratumoral bleomycin with or without electroporation; format: in vivo, nude mice; human prostate tumor (PC-3) cells; details: for death: deaths due to infighting
Protocol: In order to examine the effect of electroporation on the effectiveness of chemotherapeutic agents in vivo, a nude mouse model was utilized. For these experiments, 0.1 ml of a matrigel solution (a serum-free solution consisting of one part matrigel diluted in four parts RPMI-1640) containing 5×10^6 PC-3 cells was implanted on the flank of nude mice. The tumors were allowed to grow until a tumor volume of […]. The mice were weighed and randomly divided into six groups as follows:
Group 1: no chemotherapeutic agent, no electroporation
Group 2: 0.5 unit Bleomycin, no electroporation
Group 3: 0.5 units Bleomycin, 4 needle array, 0.65 cm, 942V, 4×100 μs pulses
Group 4: 0.5 units Bleomycin, 6 needle array, 1.00 cm, 1130 V, 6×100 μs pulses
Group 5: 0.5 units Bleomycin, 6 needle array, 0.50 cm, 559 V, 6×100 μs pulses
Group 6: 0.5 units Bleomycin, 4 needle array, 0.87 cm, 1500V, 4×100 μs pulses
In those animals which received Bleomycin, the chemotherapeutic agent (0.5 unit) was dissolved in 0.01 ml saline and injected intratumorally by "fanning." After 10±1 minutes, a Genetronics Medpulser™ device was used to pulse the tumors with a set of either 6 or 4-needle array electrodes. All treatments were given as a single set of pulses.
The animals were monitored daily for morality or any sign of disease for 67 days (see FIG. 24, where D=drug treatment (Bleomycin) and e=electroporation). Tumor size was measured and tumor volume calculated using the formula: […]
wherein a, b, and c are the length, width, and depth of the tumor in mm.
Following the monitoring period, the tumors were harvested and sections were prepared for histological analyses. Animals were classified as having progressive disease (appearance of new lesions not previously identified or having an estimated increase of 25% or more in existent lesion size), a complete response (complete disappearance of all known disease, a partial response (wherein the tumor size decrease 50% or more). Deaths were noted to be due to infighting of mice in the same cage.

prostate = test: Intraprostatic injection of Bleomycin with electroporation, tolerability, ECG and histology in dog; format: in vivo, male beagle dog
Protocol: In order to evaluate the technical feasibility of intraprostatic injection of Bleomycin, the following study was performed. A male beagle dog with a prostate size of >2 cm in diameter was anesthetized, A midline laparotomy was performed, and the bladder and gut reflected to visualize the prostate gland. Under direct visual guidance, Bleomycin was injected into each of six sextants (base, mid, and apex of both the left and right sides) of the prostate. Four electroporation needles were then inserted transperineally under visual guidance to administer the electroporation cycles. […] The ECG was recorded during each of the electroporation pulse sequences. The first two sequences were conducted with the needles inserted into the prostate, through the perineum. Four additional sequences were recorded with the needles inserted directly into the muscles of the left hindlimb. Each of the pulse sequences produced stimulation artifacts on the recording of the ECG.
The prostate was then excised and processed for histological evaluation.

[3] = partition coefficient between octanol and water; cited from earlier work
tumor cell = details: cited from earlier work
[4] = during electroporation pulse sequences

For Bleomycin, the cytotoxicity enhancement ratio (PC-3 cells [1]) was 1000, the “cell susceptibility with electroporation” value (PC-3 cells [1]) was “electroporation enhances cell susceptibility” and the “cytotoxic enhancement, rank order” value (PC-3 cells [1]) was “highest cytotoxic enhancement”. The Progressive disease (PC-3 cells [2]; Group 2: 0.5 unit Bleomycin, no electroporation, 6 animals, 67 days) was 100%, the partial response (PC-3 cells [2]; Group 3: 0.5 units Bleomycin, 4 needle array, 0.65 cm, 942V, 4×100 μs pulses, 1 of 7 animals, 67 days) was 14% and the death (PC-3 cells [2]; Group 3: 0.5 units Bleomycin, 4 needle array, 0.65 cm, 942V, 4×100 μs pulses, 1 of 7 animals) was 14%. The complete response (PC-3 cells [2]; Group 3: 0.5 units Bleomycin, 4 needle array, 0.65 cm, 942V, 4×100 μs pulses, 5 of 7 animals, 67 days) was 52%, the partial response (PC-3 cells [2]; Group 4: 0.5 units Bleomycin, 6 needle array, 1.00 cm, 1130 V, 6×100 μs pulses, 1 of 7 animals, 67 days) was 14% and the death (PC-3 cells [2]; Group 4: 0.5 units Bleomycin, 6 needle array, 1.00 cm, 1130 V, 6×100 μs pulses, 1 of 7 animals) was 14%. It also gave a complete response (PC-3 cells [2]; Group 4: 0.5 units Bleomycin, 6 needle array, 1.00 cm, 1130 V, 6×100 μs pulses, 5 of 7 animals, 67 days) of 52%, a partial response (PC-3 cells [2]; Group 5: 0.5 units Bleomycin, 6 needle array, 0.50 cm, 559 V, 6×100 μs pulses, 1 of 6 animals, 67 days) of 17% and a complete response (PC-3 cells [2]; Group 5: 0.5 units Bleomycin, 6 needle array, 0.50 cm, 559 V, 6×100 μs pulses, 5 of 6 animals, 67 days) of 83%. For the same compound, the partial response (PC-3 cells [2]; Group 6: 0.5 units Bleomycin, 4 needle array, 0.87 cm, 1500V, 4×100 μs pulses, 1 of 8 animals, 67 days) was 12%, the death (PC-3 cells [2]; Group 6: 0.5 units Bleomycin, 4 needle array, 0.87 cm, 1500V, 4×100 μs pulses, 2 of 8 animals) was 25% and the complete response (PC-3 cells [2]; Group 6: 0.5 units Bleomycin, 4 needle array, 0.87 cm, 1500V, 4×100 μs pulses, 5 of 8 animals, 67 days) was 63%. For the same compound, the “ECG, electrical rhythm of the heart” value (prostate; [4]) was “no effect on the electrical rhythm of the heart”, the “clinical disturbances of the cardiac rhythm” value (prostate; [4]) was “no clinical disturbances of the cardiac rhythm were observed” and the muscular contractions (prostate; during the electroporation pulses) was “muscular contractions were observed”. The “acute local or adverse reactions” value (prostate; intraprostatic Bleomycin plus electroporation) was “No acute local or adverse reactions”, the injection site finding (prostate; intraprostatic Bleomycin plus electroporation, persisted for the duration of the study) was “Small hematomas were evident at the injection site” and the “gross examination of prostate, perineum and surrounding tissues” value (prostate; one hour after electroporation) was “no findings except for the hematomas on the prostate surface”. The “necrosis of epithelial cells in the glandular portion of the prostate” value (prostate; one hour after electroporation) was “Necrosis occurred in the epithelial cells”, the “necrosis of the supporting stroma” value (prostate; one hour after electroporation) was “No necro-sis of the supporting stroma was observed” and the “histological tissue findings in the prostate gland” value (prostate; one hour after electroporation, multifocal in distribution pattern) was “hemorrhage, edema, and necrosis, which were mild in severity”. For the same compound, the “log P” value [3] was “very negative”, the “diffusion into a tumor cell” value (tumor cell) was “diffuse very slowly into a tumor cell” and the “penetration of the membranes of certain cancer cells” value (tumor cell; without electroporation) was “normally cannot penetrate the membranes of certain cancer cells effectively”.

In the case of `N.N.[Cl][Pt][Cl]` [Cisplatin], the “cell susceptibility with electroporation” value (PC-3 cells [1]) is reported as “electroporation enhances cell susceptibility”, the IC50 (PC-3 cells [1]; read-out: IC50 no electroporation, no electroporation, 20 hours after treatment) is reported as 50 µM and the IC50 (PC-3 cells [1]; read-out: IC50 with electroporation, with electroporation, 6 pulses, 99 μs, 400-600 V, 0.5 cm needle array, 20 hours after treatment) is reported as 10 µM.

`CO[C@@]12[C@H](COC(N)=O)C3=C(C(=O)C(C)=C(N)C3=O)N1C[C@@H]1N[C@@H]12` [Mitomycin C] showed an IC50 (PC-3 cells [1]; Homo sapiens, PC-3, 20 h, read-out: IC50 no electroporation) of 80 µM, an IC50 (PC-3 cells [1]; Homo sapiens, PC-3, 20 h, read-out: IC50 with electroporation) of 60 µM and a cytotoxicity enhancement ratio (PC-3 cells [1]) of 1.33. The “cytotoxic enhancement, rank order” value (PC-3 cells [1]) was “followed by Cisplatin and Mitomycin C”.
